Values of other authors, collected in US8932634B2, “Hydrocolloid carrier beads with inert filler material” (Yissum Research Development Company of the Hebrew …, priority 2006, dated 2015).
Counter-ions that a name gives are not always drawn.

In the case of COc1ccc([C@@H]2Sc3ccccc3N(CCN(C)C)C(=O)[C@@H]2OC(C)=O)cc1 [Diltiazem hydrochloride], the solubility in water is given as “high”.
